For the assay, the target named is T1, MET kinase (Homo sapiens, UniProt P08581).
T1 construct: Sf9 insect cell culture expressing the kinase domain of human Met; 6x Histidine tag (TEV-cleavable) (cleaved yes); made in house; host or cells: Sf9 insect cells
Put plainly: MET luminescence-based enzyme assay (Kinase-Glo). It counts as biochemical. The text has this: In addition to the c-Abl PK/LDH coupled assay (above), homogeneous luminescence-based inhibitor screening assays were developed for c-Abl, MET, AurA, and PDK1 kinases (among others). Each of these assays made use of an ATP depletion assay (Kinase-Glo™, Promega Corporation, Madison, Wis.) to quantitate kinase activity. The Kinase-Glo™ format uses a thermostable luciferase to generate luminescent signal from ATP remaining in solution following the kinase reaction. The luminescent signal is inversely correlated with the amount of kinase activity.
MET Luminescence-based Enzyme Assay
Materials: Poly Glu-Tyr (4:1) substrate (Sigma Cat# P-0275), ATP (Sigma Cat#A-3377, FW=551), HEPES buffer, pH 7.5, Bovine serum albumin (BSA) (Roche 92423420), MgCl2, Staurosporine (Streptomyces sp. Sigma Cat#85660-1MG), white Costar 384-well flat-bottom plate (VWR Cat#29444-088). […]
Standard Assay Setup for 384-well format (20 μl kinase reaction, 40 μl detection reaction): 10 mM MgCl2; 0.3 mg/ml poly Glu-Tyr; 0.1% BSA; 1 μl test compound (in DMSO); 0.4 μg/ml MET kinase; 10 μM ATP; 100 mM HEPES buffer. […] Kinase reactions were incubated at 21° C. for 60 min, then 20 μl of Kinase-Glo™ reagent were added to each well to quench the kinase reaction and initiate the luminescence reaction. After a 20 min incubation at 21° C., the luminescence was detected in a plate-reading luminometer.
(Kinase-Glo measures the ATP left after a reaction by luminescence.)

T1 sequence (P08581 1078-1345 limits assumed): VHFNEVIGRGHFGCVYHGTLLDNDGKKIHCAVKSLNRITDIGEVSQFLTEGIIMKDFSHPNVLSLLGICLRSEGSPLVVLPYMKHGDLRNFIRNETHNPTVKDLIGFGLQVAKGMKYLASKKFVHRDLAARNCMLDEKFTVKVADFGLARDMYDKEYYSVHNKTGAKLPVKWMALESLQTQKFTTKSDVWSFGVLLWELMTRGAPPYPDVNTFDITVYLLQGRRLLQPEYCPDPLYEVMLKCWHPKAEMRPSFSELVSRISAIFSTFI

Compound `CCN1CCN(C(=O)c2cccc(-c3cnc4[nH]nc(-c5cc(F)ccc5OC)c4c3)c2)CC1` showed a 50% inhibitory concentration (IC50) of 1 to 10 µM.

A word on the IC50: it is the concentration needed to halve the response being measured. A low value points to greater potency in that assay.

The values are drawn from patent US7626021B2, “Fused ring heterocycle kinase modulators” (SGX Pharmaceuticals, Inc., priority 2004, dated 2009).
